Measured values as given in PubChem BioAssay AID1645848.
In brackets after ≈: the same amount, converted by molar mass.

Conditions: buffer; pH 7.4; 6.0 h; 150.0 µM

SMILES	solubility kinetic [µg/mL]
CCOc1ccc(CCNC(=O)c2cc3ccccc3o2)cc1OCC	8.88 (≈ 25.1 µM)
Cc1ccccc1S(=O)(=O)N1CCCC(CCC(=O)NCCN(C)C2CCCCC2)C1 (configuration not stated)	11.7 (≈ 26 µM)
O=C(CCCCn1c(=O)[nH]c2ccsc2c1=O)N1CCN(c2cccc(Cl)c2)CC1	11.9 (≈ 26.7 µM)
O=C(c1ccc(C(=O)N2CCC(N3CCCC3)CC2)c(Nc2ccccc2)c1)N1CCC(N2CCCC2)CC1	63.8 (≈ 120 µM)
NC(=O)C1CCN(c2nc(-c3cccc(Br)c3)cs2)CC1	20.5 (≈ 55.9 µM)
COc1ccc(-c2ccc3nc(-c4cc(F)ccc4F)oc3c2)c(OC)c1OC	< 1
Cc1ccc(S(=O)(=O)Nc2ccc(C(=O)Nc3nc(-c4ccccc4)cs3)cc2Cl)cc1	< 1
COc1ccc2[nH]c(=O)c(-c3noc(-c4ccc(F)cc4)n3)cc2c1	< 1
Cc1cc(C)nc(NC(=S)N2CCN(c3ccncc3)CC2)c1	> 48
CC(C)c1ccccc1-c1ncc(F)c(NC2(c3ccc(-c4cccnc4)cc3)CC2)n1	< 1
O=C(c1ccc(-c2ncc3cnc(-c4ccccc4)cn23)cc1)N1CCS(=O)(=O)CC1	65.1 (≈ 150 µM)
O=C(O)c1ccnc2cc(C(OCC3CCC(F)(F)CC3)c3ccccc3Cl)[nH]c12 (configuration not stated)	> 64
Cc1ccccc1Nc1c(-c2ccccc2O)nc2sccn12	< 1
CCCC1=Nc2cc(C(=O)NC3CCCCC3)ccc2Sc2ccc(C)cc21	1.37 (≈ 3.48 µM)
Cc1ccc(S(=O)(=O)N(C)c2ccccc2C(=O)Nc2nc(-c3ccccc3)cs2)cc1	< 1
COc1ccc(-n2nc(C3CCCN(C(=O)c4ccc(C)cc4)C3)[nH]c2=O)cc1 (configuration not stated)	39.4 (≈ 100 µM)
CCOc1cc(CNc2ccc(O)cc2)ccc1OCc1ccc(Cl)cc1	4.36 (≈ 11.4 µM)
O=C(O)c1cn(C2CC2)c2cc(N3C[C@@H]4C[C@H]3CN4)c(F)cc2c1=O	> 51
O=C(Nc1nc(-c2ccccc2)cs1)c1ccncc1NS(=O)(=O)c1ccc(-c2ccccc2)cc1	< 1
CC1(C)C(=O)NC2=C1C(=O)C(=O)c1ccccc12	> 36
O=S(=O)(Nc1cccc(C(F)(F)F)c1)c1ccc(NS(=O)(=O)c2ccc3c(c2)OCCO3)cc1	< 1
O=C(Nc1ccc(N2CCN(c3ncccc3C(F)(F)F)CC2)nc1)c1cccs1	< 1
NC(=O)C1CCN(c2nc(-c3ccc(C(F)(F)F)cc3)cs2)CC1	1.98 (≈ 5.56 µM)
CC(C)CC(C)NC(=O)c1noc(-c2ccc[nH]c2=O)n1 (configuration not stated)	> 43

SMILES	solubility kinetic [µg/mL]
O=C1c2ccccc2C2=Nc3ccccc3SC(c3ccccc3F)C12 (configuration not stated)	< 1
CCCc1cc(=O)oc2c3c(c4c(c12)OC(C)(C)C=C4)OC(C)C(C)C3O (configuration not stated)	< 1
O=S(=O)(Nc1cnc2ccccc2c1)c1ccc(NCc2ccc(Br)cc2O)cc1	< 1
C[C@]12N[C@H](Cc3ccccc31)c1ccccc12	> 33
Cc1ccc(C)c(CN2C(=O)c3ccccc3S(=O)c3ccc(C(=O)N4CCN(c5ccccc5F)CC4)cc32)c1 (configuration not stated)	< 1
COc1ccccc1NC(=O)C1=C(C)Nc2c(C(=O)Nc3ccc(F)cc3)cnn2C1c1ccc(Cl)cc1 (configuration not stated)	< 1
COc1cc2c(c(OC)c1OC)-c1ccc(OC)c(=O)cc1[C@@H](NC(C)=O)CC2	21 (≈ 52.5 µM)
CCOc1ccc(CCNC(=O)c2ccnn2Cc2cccc(C)c2)cc1OCC	2.88 (≈ 7.06 µM)
CCOC(=O)Nc1ccc(NCc2ccc(F)cc2)nc1N	8.21 (≈ 27 µM)
Cc1ccc(-c2cc(C(=O)Nc3ccc(S(=O)(=O)Nc4ccc(C#N)cc4)cc3)c3ccccc3n2)cc1C	3.79 (≈ 7.12 µM)
CCOc1ccc(CCNC(=O)c2cc3sccc3n2C)cc1OCC	8.05 (≈ 21.6 µM)
O=C(Nc1ccc(Nc2ccncc2)cc1)c1ccc(Nc2ccnc3ccc([N+](=O)[O-])cc23)cc1[N+](=O)[O-]	< 1
CNc1oc(-c2cccc(Cl)c2Cl)nc1C#N	< 1
NC(=O)C1CCN(c2nccc(Cl)n2)CC1	> 35
Cc1cc(-c2nnc3n2CCCCC3)c(C)n1-c1ccc(Br)cc1	27.4 (≈ 71.1 µM)
CC(C)c1ccc2oc3nc(N)c(C(=O)O)cc3c(=O)c2c1	> 44
C#C[C@]1(OC(C)=O)CC[C@H]2[C@@H]3CCC4=C/C(=N/O)CC[C@@H]4[C@H]3CC[C@@]21CC	< 1
Cn1ccc2c(C(=O)NCC3CCC(=O)N3)nc(-c3ccccc3C#N)cc21 (configuration not stated)	52.4 (≈ 140 µM)
NC(=O)C1CCN(c2ncc(-c3ccc(Cl)cc3)s2)CC1	< 1
COc1ccc(C2Nc3ccccc3C(=O)N2Cc2ccco2)cc1 (configuration not stated)	12.2 (≈ 36.4 µM)
O=c1ncn2nc(Sc3ccc(F)cc3F)ccc2c1-c1c(Cl)cccc1Cl	> 100
Cc1ccccc1N(C)C1CN([S+](=O)([O-])c2cccc(C(F)(F)F)c2)C1	1.42 (≈ 3.7 µM)
CNC(=O)c1cc(Oc2ccc(NC(=O)Nc3cc(C(C)(C)C)nn3-c3ccc4ncccc4c3)c(F)c2)ccn1	3.5 (≈ 6.32 µM)
O=C(NC[C@H]1Cn2c(-c3ccc(Cl)cc3)cnc2CO1)C1CCCC1	> 36

SMILES	solubility kinetic [µg/mL]
COc1ccc(-c2nc(Nc3ccc(F)c(F)c3)c3ccccc3n2)cc1	< 1
COc1ccnc(NC(=S)N2CCN(c3ncc(C(F)(F)F)cc3Cl)CC2)c1	1.24 (≈ 2.86 µM)
O=C1CCCC2=C1C(c1[nH]ncc1Cl)N=C(Nc1nc3ccc(F)cc3o1)N2 (configuration not stated)	1.53 (≈ 3.81 µM)
Cn1nnnc1Sc1ncnc2scc(-c3ccc(F)cc3)c12	15.3 (≈ 44.5 µM)
COc1cc2ncnc(Oc3cccc(NC(=O)Nc4cc(C(C)(C)C(F)(F)F)on4)c3)c2cc1OC	8.62 (≈ 16.7 µM)
Cc1ccc(S(=O)(=O)Nc2ccccc2C(=O)Nc2nc(-c3ccc(Cl)cc3)cs2)cc1	7.04 (≈ 14.6 µM)
Cc1ccc(-c2cc3c(nn2)-c2ccccc2C3=O)cc1	< 1
CCCCCn1c(=O)[nH]c2cc(C(=O)NCCCN3CCC(C)CC3)ccc2c1=O	> 61
O=S(=O)(Nc1cccc2ccncc12)c1ccc(NCc2cccc(Cl)c2O)cc1	4.67 (≈ 10.6 µM)
COc1ccc(OC)c(-c2cc(C(=O)N3CCN(c4ncccn4)CC3)c3ccccc3n2)c1	24.5 (≈ 53.7 µM)
CCOc1ccc(NC(=O)CC2C(=O)N(c3ccc(F)cc3)C(=O)N2CCc2sccc2C)cc1 (configuration not stated)	< 1
COc1cccc(C(=O)Nc2ccc([S+](=O)([O-])Nc3nccs3)cc2)c1O	2.23 (≈ 5.5 µM)
CC(C)Oc1cccc(-c2cnc(N3CCC(C(N)=O)CC3)s2)c1	1.43 (≈ 4.15 µM)
CCOc1ccc(CNc2ccc3c(c2)ncn3C)cc1	> 42
O=[S+]([O-])(Nc1cccc2ccccc12)c1ccc(NCc2ccc(Cl)cc2O)cc1	< 1
O=C(CCCCCCC(=O)Nc1ccccc1)NO	> 39
NC(=O)C1CCN(c2nc(-c3cc4ccccc4o3)cs2)CC1	> 48
CCOc1ccc(CCNC(=O)c2cc3sccc3n2CCN2CCOCC2)cc1OCC	52.4 (≈ 111 µM)
NC(=O)C1CCN(c2nc(-c3ccc4c(c3)OCCO4)cs2)CC1	34.6 (≈ 100 µM)
CCN1CCN(CC(=O)Nc2ccc(-c3cccc4c(=O)cc(N5CCOCC5)oc34)c3sc4ccccc4c23)CC1	63.6 (≈ 109 µM)
CCc1ccccc1Nc1ncnc2c1cnn2-c1ccc(Cl)cc1	< 1
C=CCc1ccc(O)c(-c2ccc(O)c(CC=C)c2)c1	> 100
Cc1cccc(-c2cc(NC(=O)c3ccccc3C)n(-c3ccccc3)n2)c1	< 1
O=[S+]([O-])(Nc1nccs1)c1ccc(NCc2cc(F)cc(Cl)c2O)cc1	18.5 (≈ 44.7 µM)
